These results are taken from ChEMBL document CHEMBL1158104, “Mooloolabenes A-E, norsesterterpenes from the Australian sponge Hyattella intestinalis” (J Nat Prod, 2006).

Values after ≈ are worked out from the molar mass of the structure shown.

The assay has as its system P388. Put plainly: Cytotoxicity against mouse P388 cells. It counts as functional, cell-based.
Consider `CC(=O)O[C@@H]1OCC2=CC[C@H]3C4=CC[C@H]5C(C)(C)CCC[C@]5(C)[C@H]4CC[C@]3(C)[C@H]21` [MOOLOOLABENE E], for which the IC50 stood at 3 mg/L (≈ 7.53 µM). The compound `CC1(C)CCC[C@]2(C)[C@H]3CC[C@]4(C)[C@@H](C=O)C(C=O)=CC[C@H]4C3=CC[C@@H]12` [MOOLOOLABENE A] came in with an IC50 of 0.8 mg/L (≈ 2.26 µM). The compound `CC1(C)CCC[C@]2(C)[C@H]3CC[C@]4(C)[C@H](C=O)C(C=O)=CC[C@H]4C3=CC[C@@H]12` [MOOLOOLABENE B] had a 50% inhibitory concentration (IC50) of 1.2 mg/L (≈ 3.38 µM).

`CC(=O)OC[C@@]1(C)CCC[C@]2(C)[C@H]3CC[C@]4(C)[C@@H](C=O)C(C=O)=CC[C@H]4C3=CC[C@@H]12` [MOOLOOLABENE C]: half-maximal inhibition (IC50) was put at 3 mg/L (≈ 7.27 µM). This IC50 is about 2.5-fold higher than that of the compound before. With `CC(=O)O[C@@H]1OCC2=CC[C@H]3C4=C[C@@H](OC(C)=O)[C@H]5C(C)(C)CCC[C@]5(C)[C@H]4CC[C@]3(C)[C@H]21` [MOOLOOLABENE D] the figure was 3 mg/L (≈ 6.57 µM); with `CC(=O)O[C@@H]1OC=C2CC[C@@H]3[C@](C)(CC[C@@H]4[C@@]5(C)CCCC(C)(C)[C@@H]5CC[C@@]34C=O)[C@H]21` [MOOLOOLALDEHYDE], 3 mg/L (≈ 7 µM).

Usually IC50 stands for the concentration at which inhibition is half-maximal.
